Data published in publication PMC10321483 (Chemical Science, 2023).
“And” between values parts separate entries of the source, which are not always exact repeats. Identical values can stand only once. Like-named read-outs stand apart in the source and are kept apart here.

Tests used:
[1] = Intrinsic thiol reactivity (kchem), competition with probe 2 for L-glutathione; format: physicochemical; settings: for log(kchem) probe 2 (mean ± SD): Table S11 assay validation; for kchem (apparent intrinsic thiol reactivity): Table S5, L-glutathione 500 nM, probe 2 10 µM, 15 h
[2] = design: method as in earlier work; settings: Table S11; reported values; ref 6 (Sameshima et al., 2017); cited from earlier work
LdtMt2 [3] = target: T1, LdtMt2 (Mycobacterium tuberculosis, UniProt I6Y9J2); assay: biochemical; format: binding; design: made in house; host or cells: E. coli
Description: LdtMt2 (5 μM) was incubated with the inhibitor (500 μM) in assay buffer (50 mM tris pH 7.5) for 30 minutes at room temperature in 96-well white PCR plates (25 μL final volume, Starlab). SYPRO Orange (final concentration 6×, according to manufacturer's definition, Invitrogen) was then added and the plate was sealed using a transparent plastic film (Polyolefin StarSeal, Starlab). Fluorescence was monitored (with λex = 492 nm and λem = 610 nm) using a CFX96 Touch Real-Time PCR Detection System (Bio-Rad), while the temperature was increased from 20 to 95 °C in increments of 0.2 °C. Melting temperatures (Tms) were determined using the CFX Maestro Software (Bio-Rad).

HepG2 cells = assay: HepG2 cytotoxicity assay (CellTiter Glo); format: cell-based; settings: 48 h, ATP read-out
Description: Solutions of the test compounds (250 nL per well; 11 serial dilutions of 1/3 with starting concentration 100 μM) were dispensed in tissue-culture treated black clear-bottomed 384-well plates (Greiner, cat. no. 781091) with an Echo 555 instrument. 25 μL of HepG2 (ATCC HB-8065) cells (∼3000 cells per well) grown to confluency in Eagle's Minimal Essential Medium (MEM) supplemented with 10% (v/v) heat-inactivated FBS, 1% (v/v) non-essential amino acids (NEAA), and 1% (v/v) penicillin/streptomycin were added to each well. Plates were incubated at 37 °C with 20% O2 and 5% CO2 for 48 h. The plates were then equilibrated to room temperature. ATP levels, measured with CellTiter Glo kit (Promega), were used as cell viability read-out. 25 μL of CellTiter Glo substrate dissolved in the buffer was added to each well. Plates were incubated at room temperature for 10 min and read on ViewLux (PerkinElmer) […].

LdtMt2 [4] = target: T1, LdtMt2; assay: biochemical; format: biochemical; design: made in house; host or cells: E. coli
[5] = system: M. tuberculosis (strain H37Rv); assay: Extracellular assay: M. tuberculosis H37Rv in medium under replicating conditions; format: cell-based, Mycobacterium tuberculosis
[6] = system: M. tuberculosis (strain H37Rv) growth in THP1 cells; assay: Intracellular assay: Mtb H37Rv-Luc in THP-1 macrophages; format: cell-based, Mycobacterium tuberculosis; settings: 5 days, extrapolated from dose-response curve
LdtMt2 [7] = target: T1, LdtMt2; assay: Rate constant of covalent target inactivation (kinact/KI), endpoint competition assay with probe 2; format: biochemical; design: made in house; host or cells: E. coli; settings: 100 nM LdtMt2, 10 µM probe 2, 3 h incubation; n=4
BlaC = target: T2, BlaC (Mycobacterium tuberculosis, UniProt P9WKD3); assay: BlaC fluorogenic inhibition assay with FC5 (dose-response); format: biochemical; settings: Table S5 HTS hits, 30 minute inhibitor pre-incubation, two independent repeats
T2 construct: made in house; host or cells: E. coli
Description: Two types of controls were used. […] In control 2, the BlaC mixture was substituted with the assay buffer. This mixture was incubated for 30 minutes at room temperature without shaking. […] Data were analysed using ActivityBase (IDBS).

LdtMt2 [8] = target: T1, LdtMt2; settings: 1 μM LdtMt2, denaturing acidic conditions
Description: LdtMt2 (1 μM) in buffer (50 mM tris, pH 7.5) was incubated with an inhibitor (100 μM, 10 μM, or 2 μM, as indicated). Mass spectrometry was performed using a RapidFire200 integrated autosampler/solid phase extraction (SPE) system (Agilent Technologies) coupled to an API40000 triple quadrupole mass spectrometer (Applied Biosystems) operating in the positive ionisation mode. Samples were taken after the specified incubation periods, loaded onto a C4 cartridge (Agilent Technologies), and eluted with organic phase (85% (v/v) acetonitrile, 15% (v/v) water, 0.1% (v/v) formic acid). The cartridge was washed with both the organic phase and an aqueous phase (water, 0.1% (v/v) formic acid). Data were analysed using MassHunter Qualitative Analysis B.07.00 (Agilent Technologies). Spectra were deconvoluted using the maximum entropy algorithm in the same programme.

LdtMt2 [9] = target: T1, LdtMt2; assay: Jump dilution assay (reversibility, koff); format: biochemical; design: made in house; host or cells: E. coli; settings: read-out: koff (off rate of complex with LdtMt2)
Description: LdtMt2 (10 μM final concentration) was incubated with the inhibitor (100 μM final concentration) in the assay buffer (50 mM HEPES, pH 7.2, 0.01% (v/v) Triton X-100) for 2 hours at room temperature, then serially diluted 1000× with assay buffer (final LdtMt2 concentration 10 nM). 20 μL of the diluted mixture was added to a black polystyrene, flat-bottomed 384-well μ-clear plate (clear bottomed, Greiner Bio-One, part number 781096). Probe 2 (final concentration 15 μM) was added using a MultiDrop Combi dispenser (ThermoFisher Scientific). Fluorescence was measured using a PHERAstar plate reader (BMG Labtech) with λex = 480 nm and λem = 520 nm. Readings were taken every 15 s for a period of 5 minutes, using bottom optic measurements. The off rate (koff) was determined using eqn (7).7 [drawing 3] where, P = formed product; Vs = velocity of no-inhibitor control; V0 = velocity of no-enzyme control, and P0 = initial fluorescence.
The half-life of the enzyme–inhibitor complex (t1/2) was calculated using eqn (8).8 [drawing 4]

T2 sequence (P9WKD3 35-307): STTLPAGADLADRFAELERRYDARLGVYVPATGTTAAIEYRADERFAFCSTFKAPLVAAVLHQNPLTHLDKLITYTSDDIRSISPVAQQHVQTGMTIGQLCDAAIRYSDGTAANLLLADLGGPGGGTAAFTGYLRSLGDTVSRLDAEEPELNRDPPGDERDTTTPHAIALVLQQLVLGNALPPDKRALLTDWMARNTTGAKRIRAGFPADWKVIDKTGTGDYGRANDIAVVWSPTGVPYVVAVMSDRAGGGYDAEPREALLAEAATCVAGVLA
T1 sequence (I6Y9J2 56-408): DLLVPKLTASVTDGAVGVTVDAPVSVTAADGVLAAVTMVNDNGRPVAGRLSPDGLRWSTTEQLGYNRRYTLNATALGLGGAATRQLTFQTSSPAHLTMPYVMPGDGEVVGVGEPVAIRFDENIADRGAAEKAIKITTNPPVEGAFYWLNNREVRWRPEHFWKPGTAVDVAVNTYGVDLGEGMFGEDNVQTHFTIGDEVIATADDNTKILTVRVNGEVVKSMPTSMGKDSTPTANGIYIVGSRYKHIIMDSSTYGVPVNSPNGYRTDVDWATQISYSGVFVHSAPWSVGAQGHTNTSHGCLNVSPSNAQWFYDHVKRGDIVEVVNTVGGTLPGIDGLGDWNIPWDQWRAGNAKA

Structure (SMILES) | log(kchem) probe 2 (mean ± SD) [1] | log(kchem) o-maleimide BODIPY (mean ± SD) [2] | IC50 (HepG2 cells) [nM] | LE (ligand efficiency) (LdtMt2 [4]) | MIC50 [5] [µM] | MIC50 intracellular [6] | kinact/KI (LdtMt2 [7]) [M⁻¹ s⁻¹] | ΔTm: difference in melting point of LdtMt2 relative to unreacted LdtMt2 (43.8 °C) (LdtMt2 [3]) | also measured
CCOc1ccc(C(=O)C=CC(=O)O)cc1OCC [i] | 0.65 ± 0.06 | 0.86 ± 0.09 |  |  |  |  |  |  | 
O=C(O)C=CC(=O)c1ccc(Br)cc1 [iii] | 0.93 ± 0.02 | 1.34 ± 0.10 |  |  |  |  |  |  | 
O=C(OCN1C(=O)C=CC1=O)c1ccccc1 [Compound 7] |  |  | 3900 ± 880 | 0.66 | > 100 | 39.8 ± 0.0 µM and < 50 µM | 156 ± 5.1 |  | Tm: melting point of LdtMt2 after pre-incubation with the compound (LdtMt2 [3]; pH 7.5): 43.1 ± 0.09 °C
O=C1C(=O)N(Cc2cccc3ccccc23)c2ccc(Br)cc21 [Compound 18] |  |  | 42300 ± 3400 | 0.49 | > 100 | 35.5 ± 5.4 µM and < 50 µM |  | +2.4 | Tm: melting point of LdtMt2 after pre-incubation with the compound (LdtMt2 [3]; pH 7.5, in °C (unit assumed)): 46.2 ± 0.00; kchem (apparent intrinsic thiol reactivity) [1]: < 0.08 M⁻¹ s⁻¹; pIC50 BlaC (BlaC): < 4.0; pIC50, 0 min (LdtMt2 [4]): 6.39 ± 0.07; pIC50, 10 min (LdtMt2 [4]): 6.24 ± 0.23; pIC50, 60 min (LdtMt2 [4]): 6.49 ± 0.35; pIC50, 120 min (LdtMt2 [4]): 6.56 ± 0.35; covalent modification of LdtMt2 (adduct observed by SPE-MS) (LdtMt2 [8]): not observed to modify LdtMt2
N#C[s+]1c2ccccc2c2ccccc21.O=S(=O)([O-])C(F)(F)F [Compound 45, reference compound] |  |  |  |  |  |  |  |  | covalent modification of LdtMt2 (adduct observed by SPE-MS) (LdtMt2 [8]): did not modify LdtMt2
N#Cn1c(-c2ccncc2)nc2ccc(C(=O)c3ccccc3)cc21 [Compound 36] |  |  | 32700 ± 380 | 0.45 | > 100 | 29.5 ± 0.0 µM and < 50 µM | 51.0 ± 3.4 | -3.0 | lowered the melting temperature of LdtMt2 by (LdtMt2 [3]): 3.0 °C; Tm: melting point of LdtMt2 after pre-incubation with the compound (LdtMt2 [3]; pH 7.5, in °C (unit assumed)): 40.8 ± 0.59; pIC50 BlaC (BlaC): < 4.0
CCOc1ccc(CN2C(=O)C(=O)c3cc(Br)cc(C)c32)cc1OC [Compound 16] |  |  |  |  |  |  |  |  | Tm: melting point of LdtMt2 after pre-incubation with the compound (LdtMt2 [3]; 5 µM LdtMt2, 500 µM inhibitor, SYPRO Orange, 50 mM Tris pH 7.5): 46.8 ± 0.00 °C; ΔTm at 500 µM (LdtMt2 [3]; read-out: ΔTm: difference in melting point of LdtMt2 relative to unreacted LdtMt2 (43.8 °C)): 3 °C; kchem (apparent intrinsic thiol reactivity) [1]: < 0.08 M⁻¹ s⁻¹; IC50 (BlaC; pIC50 BlaC): 36300 nM; LE (ligand efficiency) (LdtMt2 [4]; Table S5, for LdtMt2): 0.45; IC50 (LdtMt2 [4]; Table S5 HTS hits, 30 minute inhibitor pre-incubation, two independent repeats, read-out: pIC50 LdtMt2 (converted)): 178 nM; IC50 (LdtMt2 [4]; Table S8, inhibitor pre-incubation time 0 min, read-out: pIC50, 0 min (converted)): 302 nM; IC50 (LdtMt2 [4]; Table S8, inhibitor pre-incubation time 120 min, read-out: pIC50, 120 min (converted)): 407 nM; IC50 (LdtMt2 [4]; pIC50, 10 min, Table S8, inhibitor pre-incubation time 10 min): 363 nM; IC50 (LdtMt2 [4]; pIC50, 60 min, Table S8, inhibitor pre-incubation time 60 min): 372 nM; koff (LdtMt2 [9]): 0.0286 s⁻¹
O=C1C=CC(=O)N1c1ccc(Oc2ccccc2)c(Cl)c1 [Compound 5] |  |  | 2510 ± 120 | 0.53 | > 100 | 25.7 ± 0.30 µM and < 50 µM | 116 ± 6.2 | -0.2 °C | Tm: melting point of LdtMt2 after pre-incubation with the compound (LdtMt2 [3]; pH 7.5): 43.6 ± 0.16 °C
Cc1ccc(C(=O)C=CC(=O)O)cc1C [ii] | 0.76 ± 0.03 | 1.07 ± 0.09 |  |  |  |  |  |  | 
